{
  "source": "paper PMC6573034",
  "about": "(Nature Communications, 2019)",
  "test_system": "vector-transformed E. coli JA202",
  "experiment": "Uptake of radioligands into vector-transformed bacteria",
  "assay_type": "cell-based",
  "procedure": "The cultures were grown at 37 °C and 180 r.p.m. in an incubator shaker (Multitron, Infors HT). Protein expression was induced at OD600 ~0.5 by addition of IPTG to a final concentration of 0.25 mM. After 4 h, bacteria were pelleted (5,200 × g, 10 min, room temperature) and resuspended in uptake buffer (20 mM Bis-Tris propane-HCl (pH 6.7), 250 mM KCl) to a bacteria density of OD600 12. […] Furthermore, [3-3 H] propionic acid sodium salt ([^3H]propionate, American Radiolabeled Chemicals, specific activity 30 Ci/mmol), n-[2,3-3 H] butyric acid sodium salt ([^3H]butyrate, American Radiolabeled Chemicals, specific activity 120 Ci/mmol), and [1–14 C] pyruvic acid sodium salt ([^14C]pyruvate, specific activity 0.055 Ci/mmol American Radiolabeled Chemicals) were also used for transport experiments. […] Uptake experiments were performed in 2 ml reaction tubes (Eppendorf) at 30 °C under agitation (1,000 r.p.m., Thermomixer compact, Eppendorf). […] Bacteria were immediately pelleted by centrifugation (21,000 × g, 4 min, room temperature) and washed two times with 900 μl stop buffer. Finally, bacteria were lyzed in 50 μl 5% (w/v) sodium dodecylsulfate and transferred into a white 96-well plate (Optiplate, PerkinElmer). 150 µl of scintillation cocktail (MicroScint 40, PerkinElmer) were added before measuring each reaction for 2 min with a scintillation counter (TopCount NXT, PerkinElmer). For data analysis, the signal of the empty vector was subtracted from the transporter signal. […] Cpm values of each experiment were normalized with respect to the determined upper plateau value, i.e., the fitted upper plateau value corresponds to 100%. The arithmetic average of three independent experiments was calculated. Three independent and normalized pH-dependence curves were then averaged. For data analysis Prism6 (GraphPad Software) was used. The expression of SfMCT variants in E. coli JA202 (MC4100 glcA::cat lldP::kan)[15] was verified by Western blotting. Equal amounts of bacteria expressing SfMCT variants were loaded on 14% SDS/polyacrylamide gels. His-tagged transporters were detected using an anti-His5 (Qiagen, catalogue number 34660, primary antibody) at a dilution of 1:3,000 and a goat anti-mouse IgG (H + L) HRP conjugate antibody (Biorad, catalogue number 172-1011, secondary antibody) at a dilution of 1:2,500.",
  "data": [
    {"smiles": "C[C@H](O)C(=O)O", "note": "[L-lactate]", "values": [
      {"measurement": "Uptake of radioligand by vector (cpm)", "setting": "0.1 µCi radiolabeled monocarboxylate, vector-transformed bacteria", "value": 1768.33, "unit": "cpm"},
      {"measurement": "Uptake of [14C]L-lactate by vector (cpm)", "setting": "Time 5 min", "value": 384.333, "unit": "cpm"},
      {"measurement": "Uptake of [14C]L-lactate by vector (cpm)", "setting": "Time 10 min", "value": 605.333, "unit": "cpm"},
      {"measurement": "Uptake of [14C]L-lactate by vector (cpm)", "setting": "Time 20 min", "value": 1203, "unit": "cpm"},
      {"measurement": "Uptake of [14C]L-lactate by vector (cpm)", "setting": "Time 30 min", "value": 1731, "unit": "cpm"},
      {"measurement": "Uptake of [14C]L-lactate by vector (cpm)", "setting": "Time 40 min", "value": 2474, "unit": "cpm"},
      {"measurement": "Uptake of [14C]L-lactate by vector (cpm)", "setting": "Time 50 min", "value": 3128.67, "unit": "cpm"},
      {"measurement": "Uptake of [14C]L-lactate by vector (cpm)", "setting": "Time 60 min", "value": 3938.67, "unit": "cpm"},
      {"measurement": "Uptake of [14C]L-lactate by vector (cpm)", "setting": "Time 75 min", "value": 5158, "unit": "cpm"},
      {"measurement": "Uptake of [14C]L-lactate by vector (cpm)", "setting": "Time 90 min", "value": 7311.67, "unit": "cpm"}
    ]}
  ]
}
